Laboratory results from patent US6586450B2, “Phenethyl-thiourea compounds and use” (Parker Hughes Institute, priority 1999, dated 2003).
Read-outs that look alike come from different tables or passages of the source.

Assays:
[1] = molecular target: T1, purified recombinant HIV RT (Human immunodeficiency virus type 1 group M subtype B, UniProt P04585); test: Purified recombinant HIV RT inhibition, cell-free Quan-T-RT scintillation proximity assay; type: biochemical
T1 construct: against purified recombinant HIV RT using the cell-free Quan-T-RT system
Procedure: In the assay, a DNA/RNA template is bound to SPA beads via a biotin/strepavidin linkage. The primer DNA is a 16-mer oligo(T) which has been annealed to a poly(A) template. The primer/template is bound to a strepavidin-coated SPA bead.
^3H-TTP is incorporated into the primer by reverse transcription. […] The compound being tested was added to the reaction mixture at 0.001 μM-100 μM concentrations. […] The reaction was stopped by addition of 0.2 ml of 120 mM EDTA. The samples were counted in an open window using a Beckman LS 7600 instrument and IC50 values were calculated by comparing the measurements to untreated samples.

[2] = Microculture tetrazolium Assay (MTA, XTT) for cytotoxicity; type: cell-based, human; conditions: human, PBMC; Table 1; cytotoxicity, MTA
HIV-1 strain HTLVIIIB = test: Inhibition of HIV-1 HTLVIIIB replication in PBMC (p24 antigen EIA); type: cell-based
Procedure: The HIV strain HTLVIIIB was kindly provided by Dr. Neal T.Wetherall, VIROMED Laboratories, Inc., and was propagated in CCRF-CEM cells.
Subsequently, cells were cultured in 96-well microplates (100 μL/well; 2×10^6 cells/mL, triplicate wells) in the presence of various inhibitor concentrations. […] Ag. […] The applied p24 EIA was the unmodified kinetic assay commercially available from Coulter Corporation/Immunotech, Inc. (Westbrook, Me.).
(§1) Percent inhibition of viral replication was calculated by comparing the p24 values from the test substance-treated infected cells with p24 values from untreated infected cells (i.e, virus controls).

[3] = tested on: multidrug resistant HIV-1 strain RT-MDR with a V106A mutation; test: microbe, parasite or virus in culture; type: cell-based
Procedure: (§2) Normal human peripheral blood mononuclear cells (PBMNC) from HIV-negative donors were cultured 72 hours in RPMI 1640 supplemented with 20% (v/v) heat-inactivated fetal bovine serum (FBS), 3% interleukin-2,2 mM L-glutairine, 25 mM HEPES, 2 μL, NAHCO, […] gentamicin, and 4 μg/mL phytohemagglutinin prior to exposure to HIV-1 or other HIV strain at a multiplicity of infection (MOI) of 0.1 during a one-hour adsorption period at 37° C. in a humidified 5% CO2 atmosphere. Subsequently, cells were cultured in 96-well microplates (100 μL/well; 2×10^6 cells/mL, triplicate wells) in the presence of various inhibitor concentrations. Aliquots of culture supernatants were removed from the wells on the 7th day after infection for p24 antigen p24 enzyme immunoassays (EIA), as previously described in Erice et al., 1993, Antimicrob. Ag. Chemotherapy 37:385-838. The applied p24 EIA was the unmodified kinetic assay commercially available from Coulter Corporation/Immunotech, Inc. (Westbrook, Me.).
as §1

[4] = tested on: NNI-resistant HIV-1 strain A17 with a Y181C mutation; test: microbe, parasite or virus in culture; type: cell-based; conditions: for IC50: read-out: IC50 A17 (Y181C)
Procedure: as §2, §1

PBMC = test: Microculture tetrazolium Assay (MTA, XTT) for cytotoxicity; type: cell-based, human
[5] = Table 1, recombinant HIV RT, read-out: IC50 rRT
[6] = Table 2, recombinant HIV reverse transcriptase, read-out: IC50 rRT
[7] = read-out: IC50 rRT, Table 2, recombinant HIV reverse transcriptase
[8] = Human immunodeficiency virus 1, PBMC, Table 2, wild-type HIV-1, read-out: IC50 p24
[9] = Human immunodeficiency virus 1, Table 1, p24 production in PBMC, read-out: IC50 HTLV mB
[10] = Human immunodeficiency virus 1, PBMC, read-out: IC50 RT-MDR
[11] = Human immunodeficiency virus 1, PBMC
[12] = Human immunodeficiency virus 1, PBMC, read-out: IC50 HTLV mB

O=[N+]([O-])c1ccc(CCNC(=S)Nc2ccc(Br)cn2)cc1 [HI-231]
IC50 [1, 5]: > 100000 nM | IC50 [1, 6]: > 100000 nM

COc1ccc(CCNC(=S)Nc2ccc(Br)cn2)cc1 [HI-238, N-[2-(4-methoxyphenethyl)]-N′-[2-(5-bromopyridyl)]thiourea]
IC50 [1]: 900 nM | IC50 [1, 7]: 900 nM | CC50 [2]: > 100000 nM | IC50 (HIV-1 strain HTLVIIIB; [8]): 15 nM | IC50 (HIV-1 strain HTLVIIIB; [9]): 15 nM | melting point: 178 to 179 °C

Fc1ccc(CCNC(=S)Nc2ccc(Br)cn2)cc1 [HI-242, N-[2-(4-fluorophenethyl)]-N′-[2-(5-bromopyridyl)]thiourea]
IC50 [1, 5]: 6400 nM | IC50 [1, 6]: 6400 nM

S=C(NCCc1ccc(Br)cc1)Nc1ccc(Br)cn1 [HI-243, N-[2-(4-bromophenethyl)]-N′-[2-(5-bromopyridyl)]thiourea]
IC50 [1]: 900 nM | CC50 [2]: > 100000 nM | IC50 [3, 10]: > 1 nM | IC50 [4, 11]: 1000 nM | IC50 (HIV-1 strain HTLVIIIB; [8]): 70 nM | IC50 (HIV-1 strain HTLVIIIB; [9]): 70 nM | melting point: 184 to 185 °C

Cc1ccc(CCNC(=S)Nc2ccc(Br)cn2)cc1 [HI-244, N-[2-(4-methylphenethyl)]-N′-[2-(5-bromopyridyl)]thiourea]
IC50 [1]: 100 nM | CC50 [2]: 71000 nM | cytotoxicity to PBMC (PBMC; at a concentration): not cytotoxic | IC50 [3, 10]: > 1 nM | times more effective than trovirdine ([3]; RT-MDR strain, V106A plus 74V, 41L, 215Y): 20 times | resistance of mutant strain to compound ([3]; V106A mutant strain (RT-MDR)): no resistance | selectivity index ([3]; against multidrug-resistant V106A mutant strain RT-MDR): > 71,000 | times more potent than trovirdine ([4]; A17 strain, Y181C): 7 times | IC50 [4, 11]: 70 nM | higher potency relative to trovirdine ([4]; NNI-resistant A17 strain (Y181C mutation)): 7 fold | resistance of mutant strain to compound ([4]; Y181C mutant strain (A17 strain)): 10 fold | selectivity index ([4]; against NNI-resistant Y181C mutant strain A17): > 1,000 | IC50 (HIV-1 strain HTLVIIIB; [12]): 7 nM | IC50 (HIV-1 strain HTLVIIIB; Human immunodeficiency virus 1, PBMC, read-out: IC50 for inhibition of replication of HIV-1 strain HTLVIIIB in PBMC): 7 nM | IC50 (HIV-1 strain HTLVIIIB; Human immunodeficiency virus 1, PBMC, read-out: IC50 p24): 7 nM | selectivity index (HIV-1 strain HTLVIIIB; against wild-type HIV-1 strain HTLVIIIB): > 10,000 | melting point: 159 to 162 °C

S=C(NCCc1ccc(Cl)cc1)Nc1ccc(Br)cn1 [HI-255, N-[2-(4-chlorophenethyl)]-N′-[2-(5-bromopyridyl)]thiourea]
IC50 [1]: 2500 nM | IC50 [1, 7]: 2500 nM | IC50 (HIV-1 strain HTLVIIIB; [9]): 20800 nM | melting point: 180 to 183 °C

Oc1ccc(CCNC(=S)Nc2ccc(Br)cn2)cc1 [HI-256, N-[2-(4-hydroxyphenethyl)]-N′-[2-(5-bromopyridyl)]thiourea]
IC50 [1]: 87700 nM | CC50 [2]: > 100000 nM | IC50 (HIV-1 strain HTLVIIIB; [12]): 3070 nM

S=C(NCCc1ccccc1)Nc1ccc(Br)cn1 [HI-275, N-[2-(5-Bromopyridinyl)]-N′-[2-(Phenethyl)] thiourea]
IC50 [1, 5]: 1300 nM

S=C(NCCc1ccccn1)Nc1ccc(Br)cn1 [Trovirdine, reference compound]
CC50 (PBMC; Table 1, cytotoxicity, MTA): > 100000 nM | times less potent than HI-244 ([3]; RT-MDR strain): 20 times | IC50 ([3]; Table 1, p24 production in PBMC, read-out: IC50 RT-MDR (Y106A)): 20 nM | IC50 ([4]; Table 1, p24 production in PBMC): 500 nM | IC50 (HIV-1 strain HTLVIIIB; Table 1, p24 production in PBMC, read-out: IC50 HTLV mB): 7 nM | IC50 (HIV-1 strain HTLVIIIB; Table 2, wild-type HIV-1, read-out: IC50 p24): 7 nM
